Experimental data: ChEMBL document CHEMBL5214898 (J Med Chem, 2021)

Key:
[1] = Cmax in rat at 10 mg/kg; assay type: ADME, organism-based; parameters: dose 10 mg/kg; conditions: in vivo
[2] = Drug uptake in rat assessed as unbound concentration at 10 mg/kg measured after 24 hrs; assay type: ADME, organism-based; conditions: in vivo
[3] = Unbound Cmax in rat at 10 mg/kg; assay type: ADME, organism-based; conditions: in vivo
[4] = Drug uptake in rat at 10 mg/kg measured after 24 hrs; assay type: ADME, organism-based; conditions: in vivo, read-out: Drug uptake
[5] = Oral bioavailability in Wistar Han rat plasma 10 mg/kg measured for 15 to 1440 mins by LC-MS/MS analysis relative to control; assay type: ADME, organism-based; conditions: time 15-1440 min
[6] = AUC in Wistar Han rat plasma 10 mg/kg, po measured for 15 to 1440 mins by LC-MS/MS analysis; assay type: ADME, organism-based
[7] = Tmax in Wistar Han rat plasma 10 mg/kg, po measured for 15 to 1440 mins by LC-MS/MS analysis; assay type: ADME, organism-based; conditions: time 15-1440 min
[8] = Half life in Wistar Han rat plasma 2 mg/kg, iv by LC-MS/MS analysis; assay type: ADME, organism-based
[9] = Cmax in Wistar Han rat plasma 10 mg/kg, po measured for 15 to 1440 mins by LC-MS/MS analysis; assay type: ADME, organism-based
[10] = Clearance in Wistar Han rat plasma 2 mg/kg, iv measured for 2 to 1440 mins by LC-MS/MS analysis; assay type: ADME, organism-based; conditions: time 2-1440 min
[11] = Drug uptake in Wistar Han rat plasma 10 mg/kg, po measured after 24 hrs mins by LC-MS/MS analysis; assay type: ADME, organism-based
[12] = Clearance in Beagle dog plasma 1 mg/kg, iv measured for 2 to 1440 mins by LC-MS/MS analysis; assay type: ADME, organism-based, Canis lupus familiaris; conditions: time 2-1440 min
[13] = Half life in Beagle dog plasma 1 mg/kg, iv by LC-MS/MS analysis; assay type: ADME, organism-based, Canis lupus familiaris
[14] = Drug uptake in Beagle dog plasma 2 mg/kg, po measured after 24 hrs mins by LC-MS/MS analysis; assay type: ADME, organism-based, Canis lupus familiaris
[15] = Oral bioavailability in Beagle dog plasma 2 mg/kg measured for 15 to 1440 mins by LC-MS/MS analysis relative to control; assay type: ADME, organism-based, Canis lupus familiaris; conditions: time 15-1440 min
[16] = Cmax in Beagle dog plasma 2 mg/kg, po measured for 15 to 1440 mins by LC-MS/MS analysis; assay type: ADME, organism-based, Canis lupus familiaris
[17] = Tmax in Beagle dog plasma 2 mg/kg, po measured for 15 to 1440 mins by LC-MS/MS analysis; assay type: ADME, organism-based, Canis lupus familiaris; conditions: time 15-1440 min
[18] = AUC in Beagle dog plasma 2 mg/kg, po measured for 15 to 1440 mins by LC-MS/MS analysis; assay type: ADME, organism-based, Canis lupus familiaris

| Compound | Cmax [1] | Drug uptake(free) [2] | fCmax [3] | concentration at 24 h [4] | bioavailability [5] | AUC [6] | Tmax [7] | half-life [8] | Cmax [9] | clearance [10] | concentration at 24 h [11] | clearance [12] | half-life [13] | concentration at 24 h [14] | bioavailability [15] | Cmax [16] | Tmax [17] | AUC [18] |
| --- | --- | --- | --- | --- | --- | --- | --- | --- | --- | --- | --- | --- | --- | --- | --- | --- | --- | --- |
| CCC(=O)CCCCC[C@H](NC(=O)[C@H]1CC12CCN(C)CC2)c1ncc(-c2cc3ccccc3nc2OC)[nH]1 | 627 nM | 0.11 nM | 7.5 nM | 9 nM | – | – | – | – | – | – | – | – | – | – | – | – | – | – |
| CCC(=O)CCCCC[C@H](NC(=O)[C@H]1CC12CCN(CC)CC2)c1ncc(-c2cc3cn(C)nc3cc2OC)o1 | – | – | – | – | 37% | 2.3 µM·h | 4 h | 5.1 h | 510 nM | 49 mL/min/kg | 3.6 nM | – | – | – | – | – | – | – |
| CCC(=O)CCCCC[C@H](NC(=O)[C@H]1CC12CCN(C)CC2)c1ncc(-c2ccc3nc(C)ccc3c2)[nH]1 | – | – | – | – | 0.1% | 0.01 µM·h | 0.3 h | 2.9 h | 4 nM | 45 mL/min/kg | – | – | – | – | – | – | – | – |
| CCC(=O)CCCCC[C@H](NC(=O)[C@H]1CC12CCN(C)CC2)c1ncc(-c2cc3cccnc3cc2OC)[nH]1 | – | – | – | – | 2% | 0.06 µM·h | 2.1 h | 9.5 h | 20 nM | 61 mL/min/kg | 1 nM | – | – | – | – | – | – | – |
| CCC(=O)CCCCC[C@H](NC(=O)[C@H]1CC12CCN(CC)CC2)c1ncc(-c2cc3ccc(C)nc3cc2OC)o1 | – | – | – | – | 25% | 1.1 µM·h | 5 h | 5.4 h | 150 nM | 65 mL/min/kg | 7.2 nM | 2.9 mL/min/kg | 91 h | 2 nM | 11% | 15 nM | 3 h | 0.07 µM·h |
| CCC(=O)CCCCC[C@H](NC(=O)[C@H]1CC12CCN(CC)CC2)c1ncc(-c2cc3ccn(CC)c(=O)c3cc2OC)o1 | – | – | – | – | 22% | 0.6 µM·h | 5 h | 6.5 h | 120 nM | 100 mL/min/kg | 2.2 nM | – | – | – | – | – | – | – |
| CCC(=O)CCCCC[C@H](NC(=O)[C@H]1CC12CCN(C(C)C)CC2)c1ncc(-c2cc3ccc(C)nc3cc2OC)[nH]1 | – | – | – | – | 0.6% | 0.02 µM·h | 2.1 h | 24 h | 9 nM | 60 mL/min/kg | 1 nM | – | – | – | – | – | – | – |
| CCC(=O)CCCCC[C@H](NC(=O)[C@H]1CC12CCN(C)CC2)c1ncc(-c2cc3ccc(C)nc3cc2OC)[nH]1 | – | – | – | – | 2.5% | 0.98 µM·h | 5 h | 33 h | 170 nM | 12 mL/min/kg | 8.9 nM | – | – | – | – | – | – | – |
| CCC(=O)CCCCC[C@H](NC(=O)[C@H]1CC12CCN(C)CC2)c1ncc(-c2cc3ccc(C)nc3cc2OC)o1 | – | – | – | – | 78% | 10 µM·h | 4 h | 4.8 h | 2500 nM | 25 mL/min/kg | 28 nM | 6 mL/min/kg | 43 h | 3.3 nM | 42% | 72 nM | 3 h | 0.57 µM·h |
| CCC(=O)CCCCC[C@H](NC(=O)[C@H]1CC12CCN(C)CC2)c1ncc(-c2cc3ccc(C)nc3cc2F)o1 | – | – | – | – | 6.9% | 0.3 µM·h | 2 h | 1.9 h | 63 nM | 71 mL/min/kg | 1 nM | – | – | – | – | – | – | – |
| CCC(=O)CCCCC[C@H](NC(=O)[C@H]1CC12CCN(CC)CC2)c1ncc(-c2cc3cccnc3nc2OC)o1 | – | – | – | – | 20% | 9.7 µM·h | 3 h | 3.9 h | 2100 nM | 6 mL/min/kg | 9.2 nM | – | – | – | – | – | – | – |
| CCC(=O)CCCCC[C@H](NC(=O)[C@H]1CC12CCN(CC)CC2)c1ncc(-c2cc3ccc(C)nc3cc2OC)[nH]1 | – | – | – | – | 7.9% | 0.47 µM·h | 2.1 h | 13 h | 97 nM | 51 mL/min/kg | 3.2 nM | 24 mL/min/kg | 19 h | 1.2 nM | 4.1% | 26 nM | 1.3 h | 0.1 µM·h |
